Data published in patent US20240166654A1, “RUXOLITINIB CRYSTAL AND PHARMACEUTICAL COMPOSITION THEREOF” (ZHEJIANG AUSUN PHARMACEUTICAL CO., LTD., priority 2022, published 2024).

What was measured:
[1] = Storage of crystal in polyethylene self-sealing bag, XRPD pattern; format: physicochemical; conditions: 30-35° C. for 3 months, transparent polyethylene self-sealing bag, 10.0 g
Experimental: In addition, 10.0 g of crystal of compound of formula I of Example 1 was placed in a transparent polyethylene self-sealing bag and allowed to stand at 30-35° C. for 3 months.

[2] = Stability of solid forms in stabilization chamber (appearance or XRPD versus initial solid form); format: physicochemical; conditions: for Physical stability (solid form): 3.0 g sample, appearance or XRPD compared with initial solid form
Experimental: 3.0 g of ruxolitinib free base in different solid forms was stored in a stabilization chamber, and placed in the condition that the temperature and humidity were controlled to at 25° C., 60% RH, and 40° C., 75% RH for […], respectively. The samples were analyzed by appearance or XRPD to check its solid form and compared with its initial solid form.

## N#CC[C@H](C1CCCC1)n1cc(-c2ncnc3[nH]ccc23)cn1 [Compound of Formula I of Example 1, ((3R)-3-cyclopentyl-3-[4-(7H-pyrrolo[2,3-d]pyrimidin-4-yl)pyrazol-1-yl]propionitrile)·2H2O]
[1]
  Stability of crystalline form by XRPD: remains stable
[2]; 25° C., 60% RH for 2 hours and 40° C., 75% RH for 8 hours, summary of Table 4
  Stability compared with ruxolitinib foam and amorphous form of Example 5: better stability
[2]; 25° C./60%-RH, 2 hours
  Physical stability (solid form): No change of solid form
[2]; 40° C./75%-RH, 8 hours
  Physical stability (solid form): No change of solid form

## N#CC[C@H](C1CCCC1)n1cc(-c2ncnc3[nH]ccc23)cn1 [Foam]
[2]; 25° C./60%-RH, 2 hours
  Physical stability (hygroscopicity observation): hygroscopic
  Physical stability (solid form): Change of solid form,
[2]; 40° C./75%-RH, 8 hours
  Physical stability (hygroscopicity observation): hygroscopic
  Physical stability (solid form): Change of solid form,
